These results are taken from the pKa sets of Baltruschat and Czodrowski (2020).

For one series the following is noted: acidic group.
One may read the pKa as the negative logarithm of the acid dissociation constant. High values mean a group that holds its proton tightly, low ones a group that gives up its proton readily. `C/C(O)=C/C(=O)[O-]` yielded a pKa of 13.2.

`C[Si](C)(C)CCC(=O)O`: the pKa came to 4.91. As for `O=C(O)c1ccc[n+]([O-])c1`, the pKa worked out at 2.95. For `O=C(O)c1ccc2[nH]ccc2c1`, the pKa stood at 4.1.

Turning to `CC(C)SC(C)C(=O)O` (centres undefined), the pKa is 3.78. Same read-out and setting: the value for `CCCC(C)C1(CC)C(=O)N=C([O-])NC1=O` (centres undefined) was 12.4.

`Nc1nc[nH+]c(S)c1N` yielded a pKa of 2.21. The same measure, in the same setting: then `O=C(O)[C@H](O)c1cccc([N+](=O)[O-])c1`, with 3.03; and `O=[N+]([O-])c1cc(O)ccc1O`, with 7.42; and `CC(C(=O)O)c1ccc(-c2ccccc2)c(F)c1` (centres undefined), with 4.22. Regarding `NNC(=O)c1ccccn1`, the pKa is 11.8. As for `O=S(=O)([O-])c1ccc2c(/N=N/c3ccc4[nH]cnc4c3)c(O)c(S(=O)(=O)[O-])cc2c1`, the pKa amounted to 9.8. For `O=C(O)C1c2ccccc2Oc2ccccc21`, the pKa came to 3.89. Turning to `O=C(CC(=O)c1ccc([N+](=O)[O-])cc1)Nc1ccccc1`, the pKa stood at 8.7.

On to `O=C1C[C@H](C(=O)O)[C@@H](C(=O)O)O1`, for which the pKa worked out at 2.26. Still for that read-out and setting: then `c1ccc(CSc2nc(SCc3ccccc3)c(-c3ccccc3)[nH]2)cc1`, with 10.9; and `C(COCCc1nnn[nH]1)OCCc1nnn[n-]1`, with 5.37; and `C=CC(CC(C)(C)C)c1ccc2cccnc2c1O` (centres undefined), with 9.8. Still for that read-out and setting: the value for `Fc1cc(F)c(F)c(S)c1F` was 2.75; that for `O=C(O)/C=C/SC1CCCCC1` was 4.7; that for `O=C([O-])[C@H]1O[C@@H]1C(=O)O` was 3.25. `Oc1cccc2cncnc12` returned a pKa of 8.65. Compound `OCc1nc2cc(Cl)ccc2[nH]1` yielded a pKa of 11.5.

For `O=C(O)c1cccc([N+](=O)[O-])c1`, the pKa was 3.47. Consider `Cc1cc(Br)ccc1C(=O)O`, for which the pKa was 3.77.

`O=C(O)C1CCCC[NH2+]1` (centres undefined) came in with a pKa of 2.5.

Turning to `Cc1cccc(CN(C)C)c1O`, the pKa stood at 11.1. On the same count and under the same terms, then `c1ncc2cn[nH]c2n1`, with 9.54. `CCCc1c(C)[nH]n(C2CC[NH+](C)CC2)c1=O` returned a pKa of 7.18. In turn, `NCC(N)=O` gave a pKa of 8.05. In the case of `NC(=S)Nc1cccc([N+](=O)[O-])c1`, the pKa came to 11.1. The same measure, in the same setting: the value for `Oc1ccccc1CN1CCCC1` was 10.8; that for `O=C(O)C1CC1(Br)Br` (centres undefined) was 3.57; that for `Nc1ccc(S(=O)(=O)Nc2cccnn2)cc1` was 7.06. Same read-out and setting: then `CCCCCCCCc1c(-c2ccccc2)n[nH]c1O`, with 10.2. Still for that read-out and setting: then `O=C([O-])/C=N/O`, with 10.2. `CCCCCCCCc1c(-c2ccccc2)nn(-c2ccccc2)c1O` showed a pKa of 7.5. Still for that read-out and setting: the value for `COc1cccc(C)c1C(=O)O` was 3.46. As for `C[n+]1cc(O)ccn1`, the pKa is 1.74. In turn, `Nc1cc(O)ccc1O` displayed a pKa of 10.1.

In turn, `Nc1ccc(S(=O)(=O)Nc2ncc[nH]2)cc1` came in with a pKa of 9.72. With `OC(CBr)(Oc1ccccc1)c1ccccc1` (centres undefined), the pKa is 11.2. The compound `CC(C)(C)Cc1ccccc1O` gave a pKa of 10.7. Same read-out and setting: then `CC1=CC(C)=Nc2ccc(C)cc2N1`, with 5.8; and `CCO[C@H]1C[C@@H]1C(=O)O`, with 4.46; and `Cc1cc([N+](=O)[O-])ccc1C(=O)O`, with 2.91.

As for `On1nnc2ccc(C(F)(F)F)cc21`, the pKa worked out at 3.97.

`O=C(C[N+](=O)[O-])c1ccccc1` had a pKa of 5.19. On to `O=S(=O)(O)c1ccc(O)cc1`, for which the pKa is 4.51. In the case of `CC1CCC[C@H](C(C)C(=O)O)C1` (some centres undefined), the pKa was determined as 4.59. Same read-out and setting: the value for `C[N+](C)(C)Cc1cccc(O)c1` was 8.89; that for `O=C(O)c1cc(-c2ccccc2)n[nH+]c1NCC[NH+]1CCOCC1` was 1.1. The same measure, in the same setting: then `O=N/C(Cc1ccccc1)=N\O`, with 5.3. On to `N#CCC(=O)NN`, for which the pKa amounted to 11.1. As for `O=C(/C(=N\O)c1ccccc1)c1ccccc1`, the pKa was 10. The compound `O=S(=O)(Nc1ncc(Cl)cn1)c1ccc(O)cc1` registered a pKa of 5.59. The same measure, in the same setting: the value for `O=C(O)c1ccc(Cl)c([N+](=O)[O-])c1` was 3.33; that for `CSC(=O)C1c2ccccc2-c2ccccc21` was 10.5.

The same series, now with this note: basic group.
For the compound `NC1=[NH+][C@@H](CC(=O)[O-])C(=O)N1CCCC(N)C(=O)[O-]` (some centres undefined), the pKa was 8.1. In turn, `[NH3+]c1ccc(-c2ncc(-c3ccc(Cl)cc3)o2)cc1` showed a pKa of -0.1. For the compound `Cc1c(Cn2ccnc2)oc2ccc(C(=O)[O-])cc12`, the pKa was 6.08. The compound `CCCCc1c(C)nc(NCC)nc1[O-]` yielded a pKa of 11. `O=C(O)c1ccc[n+]([O-])c1` displayed a pKa of 0.41. Still for that read-out and setting: the value for `C[n+]1ccc(N)nc1[O-]` was 4.52; that for `CC(C)(N)C(C)(C)N` was 10.1. The compound `CCCCN(C)C` registered a pKa of 10. Turning to `N/N=C/c1ncnc2nc[nH]c12`, the pKa is 9.2. Same read-out and setting: then `c1nc2c(ccc3c4c(cnc32)CCCC4)c2c1CCCC2`, with 6.23.

As to `CCCNCc1ccc(C)cc1`, the pKa amounted to 9.98. Still for that read-out and setting: then `C[Si](C)(C)OC1CN(Cc2ccccc2)C1`, with 8.08; and `CCN1CC1`, with 7.91; and `NNC(=O)c1ccccn1`, with 2.86. For `CN(C)c1ncc(-c2ccccc2)s1`, the pKa amounted to 4.89.

`Fc1cc2nc[nH]c2cc1Cl` registered a pKa of 4.33. Same read-out and setting: then `NCc1ccc(Cl)cc1`, with 9.24; and `Cn1ccc2ccccc2c1=O`, with -1.8.

In the case of `CCCCNCCC(=O)[O-]`, the pKa was 10.6.

On to `COc1cccc(Nc2ccccc2)c1`, for which the pKa amounted to 0.37. Same read-out and setting: then `c1ccc(CSc2nc(SCc3ccccc3)c(-c3ccccc3)[nH]2)cc1`, with 2.7; and `CN1CC=CCN1C`, with 5.7; and `CCOc1ccnc([O-])n1`, with 10.7. `C=CC(CC(C)(C)C)c1ccc2cccnc2c1O` (centres undefined) gave a pKa of 4.94. In turn, `Oc1cccc2cncnc12` gave a pKa of 3.41. `COc1ccc(N)cn1` showed a pKa of 4.24. In the case of `Cc1cc(Br)c(N)c(Br)c1`, the pKa was 0.69. Still for that read-out and setting: then `CC(N)CCCc1ccccc1` (centres undefined), with 9.99; and `OCc1nc2cc(Cl)ccc2[nH]1`, with 4.63; and `CC(C)NNC1CCN(C)CC1`, with 9.07. In the case of `Nc1cccc2nn([C@@H]3C[C@@H](O)[C@H](CO)O3)nc12`, the pKa was found to be 2.4. Take `CC(=O)SCCN(C)C`: the pKa is 8.27. Still for that read-out and setting: the value for `Cc1cccc(CN(C)C)c1O` was 8.18. On the same count and under the same terms, the value for `c1ncc2cn[nH]c2n1` was 2.84; that for `Oc1ccccc1CN1CCCC1` was 8.81; that for `Cc1cc[nH]n1` was 3.66. On the same count and under the same terms, the value for `Cc1nc(N)c2cnn(-c3ccccc3)c2n1` was 4.52; that for `CCCN(CCC)c1ccccc1` was 6.13. Compound `Nc1ccc(S(=O)(=O)Nc2cccnn2)cc1` came in with a pKa of 1.3. `CNCCC(=O)c1ccccc1` returned a pKa of 9. Still for that read-out and setting: the value for `CC(C)(N)C(N)=S` was 7.61; that for `C#CC(CC)(CC)N(CC)C(C)C` was 8.2; that for `NC(=O)CCCCc1cccnc1` was 5.6. Same read-out and setting: the value for `NCc1ccccc1O` was 8.89; that for `N=C(N)N` was 13.1; that for `Cc1ncnc2c1NCCN2` was 6.74. Regarding `Brc1ccc(Nc2ccccc2)cc1`, the pKa was 1.73.

Turning to `CCN(CC)[C@H]1CCC[C@@H]1N(C)C`, the pKa was determined as 9.91.

For the compound `NNC(=O)c1ccc[nH+]c1`, the pKa was determined as 1.64. Still for that read-out and setting: the value for `COc1ccc(C(O)c2ccccc2)cc1` (centres undefined) was -8; that for `C[C@@H](N)C(=O)N1CCC[C@H]1C(=O)[O-]` was 8.38; that for `CCCC1CCCN1C` (centres undefined) was 9.78.

Consider `O=C([O-])c1cc(-c2ccccc2)nnc1NCCN1CCOCC1`, for which the pKa came to 7.07. Still for that read-out and setting: the value for `COc1cc(C[NH3+])c(C)cc1N` was 4.26; that for `Cc1c[nH+]c([O-])nc1N` was 4.69. Same read-out and setting: the value for `Nc1ccnc(-c2cccc(Cl)n2)c1` was 7.7.

The compound `Nc1ccc(Cl)c2ccccc12` displayed a pKa of 3.4. The same measure, in the same setting: then `CCC(O)CN(C)CCO` (centres undefined), with 8.7; and `c1cc(N2CCOCC2)ccc1N1CCOCC1`, with 4.2. Still for that read-out and setting: the value for `CCN(CC1CO1)CC1CO1` (centres undefined) was 6.91. Still for that read-out and setting: the value for `[O-]c1ccccn1` was 11.7; that for `CC1=CC(C)=Nc2ccc(C)cc2N1` was 3.5; that for `C=CCNCC=C` was 9.35. For `[S-]CCNCc1ccccc1`, the pKa turned out to be 10.3.

`C(CN1CCOCC1)CN1CCOCC1`: the pKa is 7.25. On to `Nc1nc(N)nc(Nc2ccccc2)n1`, for which the pKa was found to be 4.65.

On to `Cc1cc(C)[nH+]c([S-])n1`, for which the pKa was 2.8. Compound `Nc1ccccn1` had a pKa of 6.95.

As to `Cc1cn2nc(-c3ccccc3)cc(C)c2n1`, the pKa stood at 5.3. Turning to `CN(C)C1CC(C)(C)[NH2+]C(C)(C)C1`, the pKa worked out at 7.67. The same measure, in the same setting: then `CCCCCNCc1ccc(C)cc1`, with 10.1. In turn, `CCCc1ccc(C)nn1` registered a pKa of 4.25. Take `Cc1ccccc1CN(C)C`: the pKa turned out to be 8.71. In turn, `CN1C[C@H](CO)C[C@H]2c3cccc4[nH]cc(c34)C[C@@H]21` yielded a pKa of 8.84.

Take `CN(C)CCCC(=O)Oc1ccccc1`: the pKa worked out at 9.7. Compound `Cc1cccc(N)n1` gave a pKa of 7.4. The same measure, in the same setting: the value for `COc1ccc(C(O)CNC(C)CC2=C(C)C(C)(C)CC2)cc1` (centres undefined) was 8.79; that for `CCN(CC)NC` was 7.14.

In turn, `N#CCC(=O)NN` had a pKa of 2.34.

With `C[n+]1cccnc1[O-]`, the pKa was 2.5.

For the compound `C/C(N)=N/N(C)C`, the pKa was found to be 10. Take `O=C([O-])[C@@H]1O[C@H](Oc2cccc3ncccc23)[C@@H](O)[C@H](O)[C@H]1O`: the pKa came to 4.91. The same measure, in the same setting: then `c1ccc(CNc2ncnc3[nH]cnc23)cc1`, with 4.09; and `Nc1nccc([O-])n1`, with 9.42. `Nc1c2ccccc2nc2c1ccc1c([N+](=O)[O-])cccc12`: the pKa came to 7.1. On the same count and under the same terms, then `CCN(CC)c1nnc(-c2ccccc2)s1`, with 3.09; and `NCCC=C(Cl)Cl`, with 9.85; and `CC1=CN(C)CC1C` (centres undefined), with 9.6. `Cc1ccc(N(C)C)cc1` yielded a pKa of 5.56.

`CN(C)Cc1cc(Cl)ccc1[O-]` gave a pKa of 11. `CCOC(=O)c1cc(-c2ccccc2)nnc1NCC[NH+]1CCOCC1`: the pKa stood at 1.5.
